Experimental data from patent US20130040882A1, “USE OF FIBROBLAST GROWTH FACTOR FRAGMENTS” (NOVARTIS AG, priority 2003, published 2013).

Test system: transcript levels in tissues (GH/IGF and glucagon/insulin axes, SSTR signalling)
Type: in vivo, cynomolgus monkeys
[1] = RNA expression fold change, pituitary

## cyclo[4-(NH2—C2H4—NH—CO—O)Pro-Phg-DTrp-Lys-Tyr(4-Bzl)-Phe] [SOM230]
[1]
  Core-binding factor, runt domain, α subunit 2; translocated to, 1; cyclin D-related ↑: D-related ↑ x3
  Cyclin D3 ↑: Cyclin D3 ↑ x2.5
  Cyclin F ↓: Cyclin F ↓ x2
  Dual specificity phosphatase 8 ↓: phosphatase 8 ↓ x3
  EGFRBP 2 ↓: EGFRBP 2 ↓ x1.5
  FGFR 2 ↓: FGFR 2 ↓ x2
  Fms-related tyrosine kinase 1 (VEGF/vascular permeability factor receptor) ↓: receptor) ↓ x1.5
  Forkhead box H1 ↑: Forkhead box H1↑ x2
  Forkhead box O3A ↓: ↓ x1.5
  G protein-coupled receptor, family C, group 5, member B ↑: 5, member B ↑ x2
  G-protein coupled receptor 9 ↑: receptor 9 ↑ x2.5
  G-protein coupled receptor 49 ↓: receptor 49 ↓ x2
  GABA-B R 1, isoform a precursor ↑: ↑ x1.5
  GFR bound protein 10 ↑: ↑ x1.5
  GLUR 2, precursor ↑: x1.5
  GTP-binding protein 11 ↑: ↑ x2.5
  GTP-binding protein (G protein), q polypeptide ↓: ↓ x2.5
  GTP-binding protein like-1 ↓: like-1 ↓ x3
  Gastrin receptor ↓: Gastrin receptor ↓ x2
  Glucagon receptor ↑: Glucagon receptor ↑ x7
  IFN stimulated gene ↑: ↑ x3.5
  IFNR2 (α, β and ω) ↓: ↓ x2.5
  IFNγ-inducible protein 30 (IP30) ↑: 30 (IP30) ↑ x1.5
  IGF-2 ↓: IGF-2 ↓ x1.5
  IGFBP, acid labile subunit ↑: subunit ↑ x3.5
  IP3 receptor, type 1 ↑: ↑ x1.5
  IP-4-phosphatase, type 1, isoform b ↓: 1, isoform b ↓ x2
  JAK 1 ↑: JAK 1 ↑ x2
  K+ channel, subfamily K, member 3 (TASK) ↓: ↓ x4
  K+ voltage-gated channel, Shab-related subfamily, member 1 ↓: subfamily, member 1 ↓ x2
  MAPKKK5 ↑: MAPKKK5 ↑ x2
  Neuroblastoma-amplified protein ↑: ↑ x1.5
  PDGFβ ↓: PDGFβ ↓ x2
  PI transfer protein, β ↓: ↓ x2.5
  PI-3-kinase, catalytic, α polypeptide ↓: polypeptide ↓ x3
  PI-3-kinase, catalytic, δ polypeptide ↓: ↓ x2
  PKC inhibitor ↑: PKC inhibitor ↑ x2
  PLCγ 1 ↓: PLCγ 1 ↓ x1.5
  PP 1, regulatory (inhibitor) subunit 5 ↑: ↑ x3.5
  PTP, receptor type, T ↑: ↑ x2
  Phosphatase and tensin homolog (mutated in multiple advanced cancers 1) ↓: 1) ↓ x3.5
  Programmed cell death 6 ↑: ↑ x1.5
  Putative Ca++ transporting ATPase ↑: transporting ATPase ↑ x2
  RAB 5C, member RAS oncogene family ↑: oncogene family ↑ x3
  Rab3 GTPase-activating protein, non catalytic subunit ↓: subunit ↓ x2
  Rab geranylgeranyltransferase, α subunit ↓: α subunit ↓ x1.5
  Rab geranyltransferase, β subunit ↑: β subunit ↑ x2
  Receptor (calcitonin) activity modifying protein 2 precursor ↑: 2 precursor ↑ x3.5
  Receptor tyrosine kinase-like orphan receptor 2 ↑: receptor 2 ↑ x2
  Regulator of G-protein signalling 9 ↑: ↑ x2
  S-phase response (cyclin-related) ↑: (cyclin-related) ↑ x2
  SHB adaptor protein (a Src homology 2 protein) ↓: ↓ x2.5
  SSTR3 ↑: SSTR3 ↑ x3
  STAT 1, 91kδ ↓: STAT 1, 91kδ ↓ x2
  Soluble adenylyl cyclase ↓: ↓ x2
  TNFR subfamily, member 14; herpesvirus entry mediator ↓: entry mediator ↓ x2.5
  TNFR-associated factor 2 ↓: 2 ↓ x4
  Thrombospondin-p50 ↓: ↓ x2
  Thyroid transcription factor 1 ↑: factor 1 ↑ x2.5
  VEGF B ↑: VEGF B ↑ x1.5
Cynomolgus monkey, in vivo
  Extra spindle poles, S. cerevisiae, homolog of ↓: ↓ x2.5
kidney
  Acetylserotonin O-methyl transferase-like expression ↓ (fold change): transferase-like ↓ x3
  Adrenomedullin expression ↑ (fold change): x1.5
  Angiotensin receptor 1B expression ↓ (fold change): 1B ↓ x1.5
  Arginine vasopressin (neurophysin II, antidiuretic hormone, diabete insipidus, neurohypophyseal) expression ↑ (fold change): ↑ x2
  CDC37 (cell division cycle 37, S. cerevisiae, homolog) expression ↑ (fold change): homolog) ↑ x1.5
  CSF-1 receptor, formerly Mc Donough feline sarcoma viral (v-fms) oncogene homolog expression ↑ (fold change): homolog ↑ x2.5
  Ca++ channel, voltage-dependent, α 1H subunit expression ↑ (fold change): α 1H subunit ↑ x2
  Calcium/calmodulin-dependent protein kinase kinase 2, β expression ↑ (fold change): ↑ x1.5
  Calmodulin 3 (phosphorylase kinase, δ) expression ↓ (fold change): kinase, δ) ↓ x1.5
  Cdk 5, regulatory subunit 2 (p39) expression ↑ (fold change): ↑ x1.5
  Cdki 1A (p21, Cip 1) expression ↑ (fold change): Cip 1) ↑ x5
  Corticotropin releasing hormone receptor type 2 beta isoform expression ↑ (fold change): isoform ↑ x1.5
  Death effector domain-containing expression ↓ (fold change): ↓ x3.5
  Dopamine receptor D2 expression ↑ (fold change): receptor D2 ↑ x4.5
  Fas/Apo-1/CD95 expression ↑ (fold change): ↑ x1.5
  GABA (A) receptor, γ2 precursor expression ↑ (fold change): precursor ↑ x2
  GFR-bound protein 7 expression ↑ (fold change): protein 7 ↑ x2
  GFR-bound protein 14 expression ↑ (fold change): protein 14 ↑ x2
  Gene expression (AvgDiff): IGF-1: 25
  Gene expression (AvgDiff): IGF-2: 49
  Gene expression (AvgDiff): IGFBP2: 563
  Gene expression (AvgDiff): IR: 196
  Gene expression (AvgDiff): SSTR2: 126
  Gene expression (AvgDiff): SSTR3: 82
  Glucocorticoid receptor DNA binding factor 1 expression ↓ (fold change): ↓ x4.5
  Glutamate receptor, metabotropic 2 precursor expression ↓ (fold change): precursor ↓ x3
  Growth arrest-specific 6 expression ↑ (fold change): specific 6 ↑ x1.5
  IGF-1 expression ↓ (fold change): IGF-1 ↓ x2.5
  IGF-2 expression ↓ (fold change): IGF-2 ↓ x2
  IGFBP2 expression ↑ (fold change): IGFBP2 ↑ x1.5
  IL-7 R precursor expression ↑ (fold change): ↑ x2
  IRF5 expression ↑ (fold change): IRF5 ↑ x2
  Insulin receptor expression ↓ (fold change): ↓ x3
  K+ voltage-gated channel, Shaw-related subfamily, member 3 expression ↑ (fold change): member 3 ↑ x2.5
  LIF (cholinergic differentiation factor) expression ↑ (fold change): factor) ↑ x2
  Na+ channel, nonvoltage-gated 1, β (Liddle syndrome) expression ↓ (fold change): ↓ x2
  Natriuretic peptide receptor A/guanylate cyclase A (atrionatriuretic peptide receptor A) expression ↑ (fold change): ↑ x2
  Opioid receptor, δ1 expression ↑ (fold change): δ1 ↑ x2.5
  PDGFR, α polypeptide expression ↑ (fold change): polypeptide ↑ x1.5
  PG-endoperoxide synthase 1 (prostaglandin G/H synthase and cyclooxygenase) expression ↓ (fold change): x3.5
  PI-3-kinase, catalytic, α polypeptide expression ↓ (fold change): polypeptide ↓ x3
  PP 3 (formerly 2B), catalytic subunit, β isoform (calcineurin A β) expression ↓ (fold change): ↓ x2
  Putative chemokine receptor; GTP-binding protein expression ↑ (fold change): ↑ x2
  SSTR2 expression ↑ (fold change): SSTR 2↑ x2
  SSTR 3 expression ↑ (fold change): SSTR 3↑ x3
  Solute carrier family 6 (neurotransmitter transporter, creatin), member 8 expression ↓ (fold change): member 8 ↓ x3
  Solute carrier family 9 (Na+/H+ exchanger) isoform 3 regulatory factor 1 expression ↑ (fold change): ↑ x2
  TGF, β1 expression ↑ (fold change): TGF, β1 ↑ x1.5
  THR binding protein expression ↑ (fold change): protein ↑x1.5
  THR, α (avian erythroblastic leukemia viral (v-erb-a) oncogene homolog) expression ↑ (fold change): homolog) ↑x1.5
  THR-associated protein, 240kδ subunit expression ↓ (fold change): subunit ↓ x1.5
  TNF, α-induced protein 3 expression ↓ (fold change): ↓ x1.5
  TNFR superfamily, member 12 expression ↑ (fold change): member 12 ↑ x2
  VWF precursor expression ↑ (fold change): x2
  Vasopressin-activated calcium-mobilizing receptor-1 expression ↓ (fold change): 1 ↓ x2
  δ sleep inducing peptide, immunoreactor expression ↑ (fold change): x2.5
liver
  1-PI-4-phosphate 5-kinase isoform C expression ↓ (fold change): ↓ x2
  5-hydroxytrypt amine (serotonine) receptor 6 expression ↑ (fold change): receptor 6 ↑ x2.5
